In patent US20240114902A1, “COMPOSITIONS AND METHODS FOR DETERRING OVIPOSITION BY FRUIT FLIES” (The United States of America, as represented by The …, priority 2022, published 2024):

Key:
Type in all cases: in vivo
[1] = test system: Zeugodacus cucurbitae; assay: Z. cucurbitae two-choice oviposition bioassay on pumpkin juice-infused agar; set-up: key to Behavioral activity (Z. cucurbitae oviposition group): Negative: “negative” (i.e., oviposition reduced); Neutral: “neutral” (i.e., no effect on oviposition); Positive: “positive” (i.e., oviposition increased); conditions: for Behavioral activity (Z. cucurbitae oviposition group): individual CFFA component; for Z. cucurbitae oviposition reduction vs control agar: individual compound; for Z. cucurbitae oviposition increase vs ethanol control agar: 24 hours
Experimental: Oviposition bioassays were conducted with mated female flies, using pumpkin juice-infused agar as an oviposition substrate. A small petri dish (60×15 mm) filled with 10 mL of 1% agar mixed in pumpkin juice was used as an oviposition substrate. The agar plates were surface-treated either with 200 μL of ethanol or 200 μL of CFFA in one of 4 doses tested (20, 2, 0.2, and 0.02 mg/200 μL of ethanol), placed into a fume hood for 10 minutes for solvent evaporation prior to use in bioassays, and positioned upside-down (i.e. treated side down) on top of the 30×30×30 cm (W×L×H) screened cage 17 cm apart from each other (i.e. one each of control and CFFA treated), allowing 20 female flies (14 to 18 day-old) to oviposit on pumpkin juice agar from the bottom through the cage screen for 24 hours. Each cage was provided with a ball of water-saturated cotton, sugar, and protein hydrolysate in separate 30 mL deli cups and two oviposition substrates-one treated with CFFA diluted in ethanol and the other treated with the ethanol control. After 24 hours, Z. cucurbitae eggs in the pumpkin agar were gently separated from the agar in water and the number of eggs were individually counted. The experiment was replicated five times per treatment. CFFA was not an effective oviposition deterrent for Z. cucurbitae which is contrary to our previous work on B. dorsalis (Roh et al., 2023a). […] CFFA components were categorized into three groups “negative” (i.e., oviposition reduced), “neutral” (i.e., no effect on oviposition), and “positive” (i.e., oviposition increased) based on bioassay outcome. Using these categories, further formulations were made to determine key bioactive CFFA components in terms of oviposition deterrence on Z. cucurbitae at the equivalent ratios and concentrations of each component found in CFFA (Zhu et al. 2018). The approach involved testing the bioactivity of the negative-component blend (4c blend) for oviposition deterrence at three different doses (2, 0.2, and 0.02 mg CFFA equivalent/agar), compared with ethanol control. Further, neutral compound is added to the negative blend i.e., ‘negative+neutral’ component blend (5c blend) to identify key compounds for oviposition deterrence. The experiment was replicated five times per treatment.

[2] = test system: Bactrocera dorsalis (OFF); assay: OFF two-choice cage oviposition bioassay on guava juice-infused agar; set-up: key to Activity (OFF oviposition group): Negative: “OFF negative” (i.e., oviposition reduced); Neutral: “OFF neutral” (i.e., no effect on oviposition); Positive: “OFF positive” (i.e., oviposition increased); conditions: for OFF oviposition reduction vs control agar / effect on OFF oviposition vs control agar / OFF oviposition increase vs control agar: 20 mg/agar; for OFF oviposition reduction vs control agar: 3 days; for Activity (OFF oviposition group): individual CFA component; for OFF oviposition deterrence at lower dose / effect on OFF oviposition vs control agar: individual compound; for OFF oviposition deterrence at lower dose: 2 mg dose; for OFF oviposition increase vs control agar: ethanol control
Experimental: Evaluation of oviposition deterrence of CFA: OFF oviposition bioassays were conducted using laboratory two-choice cage experiments with guava juice-infused agar as an oviposition substrate. The agar plates were prepared by pouring 30 mL of boiled agar mixture [1000 mL distilled water, 500 mL guava juice (Deans Foods, El Paso, Texas, USA), 10 g agar, 0.6 g methylparaben, 6.7 mL 95% ethanol, and 3 mL acetic acid] into a 30 mL deli plastic cup to gel. The agar was then covered with a lid to avoid desiccation. The two-choice oviposition bioassay was conducted in screened cages using 20 mated OFF females per cage (12-18 day-old; Jang E B et al., 1997, “Attraction of female oriental fruit fly, Bactrocera dorsalis, to volatile semiochemicals from leaves and extracts of a non-host plant, Panax (Polyscias guilfoylei) in laboratory and olfactometer assays,” J. Chem. Ecol. 23:1389-1401) over 3 days. Each cage was provided with a ball of water-saturated cotton, sugar, and protein hydrolysate in separate 30 mL deli cups and two guava juice agar plates-one treated with CFA diluted in hexane and the other treated with the hexane control. The agar plates were surface-treated either with 200 μL of hexane or 200 μL of CFA in one of 4 doses tested (20, 2, 0.2, and 0.02 mg/200 μL of hexane), placed into a fume hood for 10 minutes prior to use in bioassays, and positioned upside-down (i.e., treated side down) on the center of the outside top of the screened cage 17 cm apart from each other (i.e., one each of control and CFA treated), allowing female flies to oviposit on guava juice agar from the bottom through the cage screen. After three days, OFF eggs in the guava agar were gently separated from the agar in water and the number of eggs were individually counted (up to 100 eggs) or estimated volumetrically at 1 mL OFF eggs=20,000 eggs (Stephanie Gayle personal communication). The experiment was replicated six times per treatment. Determination of bioactive oviposition deterrent components from CFA: A series of bioassays was conducted to identify key deterrent components of CFA for OFF using the same two-choice bioassay design described above. […] Ethanol was used as control and for preparing dilutions of C16:0 and C18:0. Hexane was used as control and for dilutions of the other six compounds tested. Based on the outcome of these bioassays, the eight free fatty acid components were assigned to “OFF negative” (i.e., oviposition reduced), “OFF neutral” (i.e., no effect on oviposition), and “OFF positive” (i.e., oviposition increased) compound groups. Using these groupings, four different blends were formulated (indicated in Table 1), composed at the equivalent ratios and concentrations of each component found in CFA (Zhu J J et al., 2018, supra), to determine key bioactive CFA components in terms of oviposition deterrence on OFF. The approach involved testing the bioactivity of the OFF negative-component blend (4c blend) for oviposition deterrence at three different doses (2, 0.2, and 0.02 mg CFA equivalent/agar), first comparing with hexane control, then with CFA at respective equivalent doses. As the 4c blend was not as effective as CFA, a “OFF negative+OFF neutral” component blend (6c blend) was then formulated, and its effect compared with CFA at 2 and 0.2 mg CFA equivalent/agar. Two subtraction blends with one of the two OFF neutral components removed from the 6c blend (5c-i and 5c-ii blends) were formulated and compared with the 6c blend at 2 and 0.2 mg CFA equivalent/agar. The experiment was replicated four to six times per treatment.

[3] = test system: Drosophila suzukii (SWD); assay: SWD laboratory two-choice oviposition bioassay on raspberries; set-up: key to Behavioral activity (SWD oviposition group): Negative: “SWD negative” compounds (i.e., SWD oviposition was reduced); Neutral: “SWD neutral” compounds (i.e., no effect on oviposition); conditions: two-choice; for Behavioral activity (SWD oviposition group): individual CFA component; for effect on SWD oviposition vs control: individual compound, 20 mg dose
Experimental: Laboratory choice test 1 Oviposition bioassays were conducted at USDA-ARS in Hilo, Hawaii using a laboratory two-choice cage experimental set-up with organic raspberries purchased from a local grocery as an oviposition substrate. For all laboratory assays listed below, the receptacles of the raspberries were stuffed with cotton to prevent flies from ovipositing on the interior of the fruit as described previously in Cha D H et al. (2021, supra). The two-choice oviposition bioassay was conducted over 24 hours in screened cages (30 cm W×30 cm L×30 cm H; BugDorm-2120 Insect tent; shop.bugdorm.com) with 30 female and 10 male SWD (7-8 days old) released per cage. Each cage was provided with cotton moistened with water in a 20 mL deli cup and two 30 mL deli cups; one with two raspberries treated with CFA diluted in hexane and the other with two raspberries treated with hexane only. Each raspberry was surface-treated either with 200 μL of hexane or 200 μL of CFA in one of three doses (20, 2, or 0.2 mg CFA/200 μL hexane), placed into a fume hood for 10 minutes or until used in the bioassay. The deli cups with the treated berries were positioned in the center of the floor of the screened cage, 17 cm apart from each other. Female flies were allowed to oviposit on the surface of raspberries for 24 hours. At the conclusion of the bioassay, each 30 mL deli cup containing two raspberries was moved into a 600 mL deli cup with a mesh cap, held for 8 days (22.1±1.9° C., 71.7±3.1% RH, 16:8 L:D), when the number of larvae and pupae were counted. The experiment was replicated four times per treatment. Laboratory choice test 2 A series of bioassays were conducted in Hilo, Hawaii to identify key bioactive deterrent components of CFA for SWD using the same two-choice bioassay described above. […] Due to solubility differences, ethanol was used as control and for dilution of C16:0 and C18:0, while hexane was used as control and for dilution of the other six compounds tested. Based on the outcome of these bioassays, the eight free fatty acid components of CFA were grouped into two groups; “SWD negative” compounds (i.e., SWD oviposition was reduced) and “SWD neutral” compounds (i.e., no effect on oviposition), and tested whether the blend of “SWD negative” compounds had the same oviposition deterrence as the CFA at their equivalent concentrations as in CFA (see Table 2). The oviposition deterrence of the blend of “SWD negative” compounds was first compared to hexane at three different doses (20, 2 and 0.2 mg CFA equivalent/raspberry) and subsequently compared to CFA at 2 mg equivalent dose.

[4] = test system: Bactrocera dorsalis; assay: B. dorsalis spatial deterrence, two-choice traps baited with guava juice; conditions: tested individually
Experimental: In addition to CFA, a series of odd-numbered carbon fatty acids (C9:0 to C17:0) and fatty acid methyl esters were evaluated for the spatial deterrence to B. dorsalis that results in oviposition reduction. Table 3 below lists the fatty acid methyl esters tested for spatial repellency for Bactrocera dorsalis. […] FIG. 16A, FIG. 16C, FIG. 16E, FIG. 16G, FIG. 16I, FIG. 16K, FIG. 16M, FIG. 16O, FIG. 16Q, and FIG. 16S show the mean numbers (±SEM) of mated female B. dorsalis flies captured, and FIG. 16B, FIG. 16D, FIG. 16F, FIG. 16H, FIG. 16J, FIG. 16L, FIG. 16N, FIG. 16P, FIG. 16R, and FIG. 16T show the number of B. dorsalis eggs oviposited in traps baited with guava juice (control) and with guava juice plus one of the coconut fatty acid methyl ester compounds in two-choice bioassays. For each test, different letter on the bar indicate a significant difference by Tukey-Kramer tests at P<0.05, n=4.

CCCCC/C=C\C/C=C\CCCCCCCC(=O)O [C18:2, linoleic acid]
effect on Z. cucurbitae oviposition ([1]; 2 mg dose): either lost oviposition deterrence or increased oviposition
Behavioral activity (Z. cucurbitae oviposition group) [1]: Negative
Z. cucurbitae oviposition reduction vs control agar ([1]; 20 mg dose): 96.4%
OFF oviposition reduction vs control agar [2]: 99%
Activity (OFF oviposition group) [2]: Negative
OFF oviposition deterrence at lower dose [2]: maintained OFF oviposition deterrence
Behavioral activity (SWD oviposition group) [3]: Neutral
effect on SWD oviposition vs control [3]: did not increase or decrease SWD oviposition

CCCCCCCC/C=C\CCCCCCCC(=O)O [C18:1, oleic acid]
effect on Z. cucurbitae oviposition ([1]; 2 mg dose): either lost oviposition deterrence or increased oviposition
Behavioral activity (Z. cucurbitae oviposition group) [1]: Negative
Z. cucurbitae oviposition reduction vs control agar ([1]; 20 mg dose): 98.1%
OFF oviposition reduction vs control agar [2]: 100%
Activity (OFF oviposition group) [2]: Negative
OFF oviposition deterrence at lower dose [2]: maintained OFF oviposition deterrence
Behavioral activity (SWD oviposition group) [3]: Neutral
effect on SWD oviposition vs control [3]: did not increase or decrease SWD oviposition

CCCCCCCCCCCCCC(=O)O [C14:0, myristic acid]
Z. cucurbitae oviposition increase vs ethanol control agar ([1]; 20 mg dose): 77.7%
Behavioral activity (Z. cucurbitae oviposition group) [1]: Positive
Activity (OFF oviposition group) [2]: Neutral
effect on OFF oviposition vs control agar [2]: did not affect OFF oviposition
Behavioral activity (SWD oviposition group) [3]: Neutral
effect on SWD oviposition vs control [3]: did not increase or decrease SWD oviposition

CCCCCCCCCCCCCCCC(=O)O [C16:0, palmitic acid]
Z. cucurbitae oviposition increase vs ethanol control agar ([1]; 20 mg dose): 67.3%
Behavioral activity (Z. cucurbitae oviposition group) [1]: Positive
OFF oviposition increase vs control agar [2]: 60%
Activity (OFF oviposition group) [2]: Positive
Behavioral activity (SWD oviposition group) [3]: Neutral
effect on SWD oviposition vs control [3]: did not increase or decrease SWD oviposition

CCCCCCCCCCC(=O)OC [C11:0 ME, Methyl undecanoate]
effect on female B. dorsalis attraction and oviposition to host fruit odors [4]: significantly reduced

CCCCCCCCCCCCCCCCCC(=O)O [C18:0, stearic acid]
effect on Z. cucurbitae oviposition ([1]; 20 mg dose): did not affect oviposition
Behavioral activity (Z. cucurbitae oviposition group) [1]: Neutral
OFF oviposition increase vs control agar [2]: 29%
Activity (OFF oviposition group) [2]: Positive
Behavioral activity (SWD oviposition group) [3]: Neutral
effect on SWD oviposition vs control [3]: did not increase or decrease SWD oviposition

CCCCCCCCCCCC(=O)O [C12:0, lauric acid]
Z. cucurbitae oviposition increase vs ethanol control agar ([1]; 20 mg dose): 86.4%
Behavioral activity (Z. cucurbitae oviposition group) [1]: Positive
Activity (OFF oviposition group) [2]: Neutral
effect on OFF oviposition vs control agar [2]: did not affect OFF oviposition
Behavioral activity (SWD oviposition group) [3]: Neutral
effect on SWD oviposition vs control [3]: did not increase or decrease SWD oviposition

CCCCCCCCCCC(=O)O [C11:0, Undecylic acid]
effect on OFF oviposition vs control agar [2]: significantly reduced

CCCCCCCCCCCCCCC(=O)OC [C15:0 ME, Methyl pentadecanoate]
effect on female B. dorsalis attraction and oviposition to host fruit odors [4]: significantly reduced

CCCCCCCCC(=O)OC [C9:0 ME, Methyl pelargonate]
effect on female B. dorsalis attraction and oviposition to host fruit odors [4]: significantly reduced

CCCCCCCCCCCCC(=O)OC [C13:0 ME, Methyl tridecanoate]
effect on female B. dorsalis attraction and oviposition to host fruit odors [4]: significantly reduced
